# Experimental data from the supplement of paper PMC11208160.
# Experiment: recombinant barcode read abundance after kanamycin selection (control-corrected) (log10(CPM+1)); higher = more efficient recombination; sequences stand for … in AGTGCAGAGAAAATCGGCCAGTTTTCTCTGCCTGCAGTCCGCATGCCGT…AGATTTATGCAGCGGACTGCCTTTCTCCCAAAGTGATAAACCGGACAGTATCATGGACCGGTTTTCCCGGTAATCCGTATTTGCAAGGTTGGTTTCACT; site = the 11-nt target
# Summary of the method: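 Each value is log10(CPM+1). It describes recombination efficiency, taken as averaged, control-corrected counts per million of barcodes at recombinant junctions. The pooled E. coli library paired targets with IS621 bridge RNA target-binding loops, was co-electroporated with a donor plasmid, and was plated twice on chloramphenicol/ampicillin LB agar (control) and twice on chloramphenicol/ampicillin/kanamycin containing 0.1 mM IPTG.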
# 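Also: IS621 recombinase and bridge RNA in Escherichia coli cells.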
row,Sequence,recombinant barcode read abundance (log10)
1,CTGCTACCTTGGGTTCTAACCTGTTGCCT (site CGGCTACCTAG),0.0908
2,CTGCTACCTTGGGTTCTAACCTGTTGCCT (site CTGCTACCTAG),1.13
3,CTGCTAGCTTGGGTTCTAACCTGTTGCAG (site CTGCTAGCTCT),1.08
4,CTGCTAGCTTGGGTTCTAACCTGTTGCAG (site GACAGGCCTAC),0.289
5,CTGGAACCTTGGGTTCTAACCTGTTGCGG (site CTAGAAGCTCC),0
6,CTGGAACCTTGGGTTCTAACCTGTTGCGG (site CTGGAACCTCC),1.25
7,CTGGAGTCTTGGGTTCTAACCTGTTGCCT (site CTGGAGTCTAG),2.33
8,CTGGAGTCTTGGGTTCTAACCTGTTGCCT (site CTGGCGTCTAG),0.322
9,CTGGAGTCTTGGGTTCTAACCTGTTGCCT (site CTGGGGTCTAG),0.412
10,CTGGAGTCTTGGGTTCTAACCTGTTGCCT (site CTGGTGTCTAG),0.793
11,CTGGTATCTTGGGTTCTAACCTGTTGCTT (site CTGGTATCTAA),0.509
12,CTGGTATCTTGGGTTCTAACCTGTTGCTT (site GGCTACCCTTT),0.0591
13,CTGGTGTCTTGGGTTCTAACCTGTTGCCT (site CTGGAGTCTAG),0.0957
14,CTGGTGTCTTGGGTTCTAACCTGTTGCCT (site CTGGCGTCTAG),0.248
15,CTGGTGTCTTGGGTTCTAACCTGTTGCCT (site CTGGGGTCTAG),0.0939
16,CTGGTGTCTTGGGTTCTAACCTGTTGCCT (site CTGGTGTCTAG),2.42
17,CTGTATACTTGGGTTCTAACCTGTTGCCA (site CTATATACTTG),0.113
18,CTGTATACTTGGGTTCTAACCTGTTGCCA (site CTGTATACTTG),0.175
19,CTGTCGCCTTGGGTTCTAACCTGTTGCCT (site CTATCGCCTAG),0.699
20,CTGTCGCCTTGGGTTCTAACCTGTTGCCT (site CTCTCGCCTAG),0.0526
21,CTGTCGCCTTGGGTTCTAACCTGTTGCCT (site CTGTCGCCTAG),0.276
22,CTGTCGCCTTGGGTTCTAACCTGTTGCCT (site CTTTCGCCTAG),0.0305

row,Sequence,recombinant barcode read abundance (log10)
1,CTGTCTCCTTGGGTTCTAACCTGTTGCCT (site ATGTCTCCTAG),0.221
2,CTGTCTCCTTGGGTTCTAACCTGTTGCCT (site CTGTCTCCTAG),1.29
3,CTGTCTCCTTGGGTTCTAACCTGTTGCCT (site GTGTCTCCTAG),0.0715
4,CTGTCTCCTTGGGTTCTAACCTGTTGCCT (site TTGTCTCCTAG),0.3
5,CTGTGAACTTGGGTTCTAACCTGTTGCCT (site CAGTGAACTAG),0.128
6,CTGTGAACTTGGGTTCTAACCTGTTGCCT (site CCGTGAACTAG),0.133
7,CTGTGAACTTGGGTTCTAACCTGTTGCCT (site CGGTGAACTAG),0.216
8,CTGTGAACTTGGGTTCTAACCTGTTGCCT (site CTGTGAACTAG),0.679
9,CTGTGCCCTTGGGTTCTAACCTGTTGCCT (site CTGAGCCCTAG),0.105
10,CTGTGCCCTTGGGTTCTAACCTGTTGCCT (site CTGCGCCCTAG),0.0771
11,CTGTGCCCTTGGGTTCTAACCTGTTGCCT (site CTGGGCCCTAG),0.0673
12,CTGTGCCCTTGGGTTCTAACCTGTTGCCT (site CTGTGCCCTAG),0.574
13,CTGTTCCCTTGGGTTCTAACCTGTTGCGG (site CTGATCCCTCC),0.291
14,CTGTTCCCTTGGGTTCTAACCTGTTGCGG (site CTGCTCCCTCC),0.797
15,CTGTTCCCTTGGGTTCTAACCTGTTGCGG (site CTGGTCCCTCC),0.129
16,CTGTTCCCTTGGGTTCTAACCTGTTGCGG (site CTGTTCCCTCC),1.05
17,CTTACGGCTTGGGTTCTAACCTGTTGCCT (site CTTACAGCTAG),0.186
18,CTTACGGCTTGGGTTCTAACCTGTTGCCT (site CTTACCGCTAG),0.196
19,CTTACGGCTTGGGTTCTAACCTGTTGCCT (site CTTACGGCTAG),0.0569
20,CTTACGGCTTGGGTTCTAACCTGTTGCCT (site CTTACTGCTAG),0.262
21,CTTCATCCTTGGGTTCTAACCTGTTGCCT (site CTTCAACCTAG),0.0199
22,CTTCATCCTTGGGTTCTAACCTGTTGCCT (site CTTCACCCTAG),0.34

row,Sequence,recombinant barcode read abundance (log10)
1,CTTCATCCTTGGGTTCTAACCTGTTGCCT (site CTTCAGCCTAG),0.0613
2,CTTCATCCTTGGGTTCTAACCTGTTGCCT (site CTTCATCCTAG),0.466
3,CTTCGGACTTGGGTTCTAACCTGTTGCTT (site CTTCGGACTAA),0.769
4,CTTCGGACTTGGGTTCTAACCTGTTGCTT (site GAGTCTCCTCC),0.133
5,CTTCGGGCTTGGGTTCTAACCTGTTGCAA (site CTTCGGACTTT),0.217
6,CTTCGGGCTTGGGTTCTAACCTGTTGCAA (site CTTCGGGCTTT),0.915
7,CTTCGTCCTTGGGTTCTAACCTGTTGCGT (site CTTCGTCCTAA),0.102
8,CTTCGTCCTTGGGTTCTAACCTGTTGCGT (site CTTCGTCCTAC),1.59
9,CTTCGTCCTTGGGTTCTAACCTGTTGCGT (site CTTCGTCCTAG),0.126
10,CTTCGTCCTTGGGTTCTAACCTGTTGCGT (site CTTCGTCCTAT),0.797
11,CTTGCGACTTGGGTTCTAACCTGTTGCTT (site CTTGCGACTAA),0.391
12,CTTGCGACTTGGGTTCTAACCTGTTGCTT (site TGCATAGCTTG),0.0884
13,CTTGCTCCTTGGGTTCTAACCTGTTGCAT (site AGACGGACTTG),0.0627
14,CTTGCTCCTTGGGTTCTAACCTGTTGCAT (site CTTGCTCCTAT),0.227
15,CTTTAGTCTTGGGTTCTAACCTGTTGCTA (site AAAGGTCCTCT),0.0491
16,CTTTAGTCTTGGGTTCTAACCTGTTGCTA (site CTTTAGTCTTA),0.174
17,CTTTCACCTTGGGTTCTAACCTGTTGCCT (site CTTTCACCTAG),0.547
18,CTTTCACCTTGGGTTCTAACCTGTTGCCT (site CTTTCGTCTAG),0.0614
19,CTTTCGCCTTGGGTTCTAACCTGTTGCCT (site CTATCGCCTAG),0.0688
20,CTTTCGCCTTGGGTTCTAACCTGTTGCCT (site CTCTCGCCTAG),0.102
21,CTTTCGCCTTGGGTTCTAACCTGTTGCCT (site CTGTCGCCTAG),0.0968
22,CTTTCGCCTTGGGTTCTAACCTGTTGCCT (site CTTTCGCCTAG),0.0534

row,Sequence,recombinant barcode read abundance (log10)
1,CTTTGCCCTTGGGTTCTAACCTGTTGCCT (site CATTGCCCTAG),0.179
2,CTTTGCCCTTGGGTTCTAACCTGTTGCCT (site CCTTGCCCTAG),0.0734
3,CTTTGCCCTTGGGTTCTAACCTGTTGCCT (site CGTTGCCCTAG),0.0892
4,CTTTGCCCTTGGGTTCTAACCTGTTGCCT (site CTTTGCCCTAG),0.687
5,GAAAGGGCTTGGGTTCTAACCTGTTGCCT (site GAAAAGGCTAG),0.183
6,GAAAGGGCTTGGGTTCTAACCTGTTGCCT (site GAAACGGCTAG),0.0842
7,GAAAGGGCTTGGGTTCTAACCTGTTGCCT (site GAAAGGGCTAG),0.566
8,GAAAGGGCTTGGGTTCTAACCTGTTGCCT (site GAAATGGCTAG),0.0705
9,GAAATTCCTTGGGTTCTAACCTGTTGCCT (site GAAAATCCTAG),0.148
10,GAAATTCCTTGGGTTCTAACCTGTTGCCT (site GAAACTCCTAG),0.266
11,GAAATTCCTTGGGTTCTAACCTGTTGCCT (site GAAAGTCCTAG),0.132
12,GAAATTCCTTGGGTTCTAACCTGTTGCCT (site GAAATTCCTAG),0.371
13,GAACCTTCTTGGGTTCTAACCTGTTGCCT (site GAACCTTCTAG),0.695
14,GAACCTTCTTGGGTTCTAACCTGTTGCCT (site GAACGATCTAG),0.0234
15,GAACGACCTTGGGTTCTAACCTGTTGCTT (site GAACGACCTAA),0.613
16,GAACGACCTTGGGTTCTAACCTGTTGCTT (site GAACGACCTCA),0.0114
17,GAACGCTCTTGGGTTCTAACCTGTTGCTT (site GAACGCTCTAA),0.876
18,GAACGCTCTTGGGTTCTAACCTGTTGCTT (site TGTAAGACTCT),0.225
19,GAACGGGCTTGGGTTCTAACCTGTTGCGG (site GAACGGGCTCC),1.33
20,GAACGGGCTTGGGTTCTAACCTGTTGCGG (site GGACGGGCTCT),0.12
